Measurements from article PMC10923054, “Antiplasmodial peptaibols act through membrane directed mechanisms” (Cell Chemical Biology, 2024).
Square brackets hold non-standard residues; d marks the D form. Peptide text beside a SMILES is read from it. Leu(ol) = CC(C)C[C@H](N)CO; dIva = CC[C@@](C)(N)C(=O)O; Aib = CC(C)(N)C(=O)O

Experiments:
[1] = system: Dd2; assay: Cross resistance screening (1536-well SYBR Green I), parental line; type: cell-based, P. falciparum; conditions: Winzeler laboratory cross resistance screen, 0.3% parasitemia, 2.5% hematocrit, 72 h, mean ± SEM of 3 biological replicates
Experimental: Parasites grown in the Winzeler laboratory for screening and drug selections were maintained in RPMI 1640 medium supplemented with 0.25% Albumax I, 26 mM sodium bicarbonate, 0.1 mM hypoxanthine, and […] gentamicin. Human O+ whole blood obtained from the Blood Bank of The Scripps Research Institute was used for cultivation (human subjects IRB number: 125933). Blood-stage cultures were kept at 37°C with 5% CO2, 3% O2, and 92% N2. Monitoring of parasitemia and parasite morphology was performed using microscopic evaluation of thin blood smears that were first fixed with methanol, and then stained with Giemsa.
Cross resistance screening was performed with 0.3% parasitemia, 2.5% hematocrit, dispensed into 1536-well black, clear bottom plates with pre-spotted compound using a MultiFloTM Microplate dispenser (BioTek) at a volume of 8 μL/well. Plates where then incubated at 37°C for 72 h, after which 10× SYBR Green I (Invitrogen) in a lysis buffer (20 mM Tris/HCl, 5 mM EDTA, 0.16% (w/v) saponin, 1.6% (v/v) […]) was then added using a MultiFloTM Microplate dispenser (BioTek) at a volume of 2 μL/well. After 24 h incubation at room temperature, viability was measured via fluorescence using the EnVision® Multilabel Reader (PerkinElmer) (485 nm excitation, 530 nm emission). IC50 values were determined in CDD vault (https://www.collaborativedrug.com/).

[2] = system: PbLuc (P. berghei ANKA GFP-Luc-SMcon sporozoites in HepG2-A16-CD81 cells); type: cell-based; conditions: 48 h after sporozoite addition, luciferase; mean ± SEM of 3 biological replicates; read-out: PbLuc EC50 (P. berghei liver stage)
Experimental: (§1) The liver stage was performed as discussed in.[61] Liver-stage inhibitory activity was evaluated in HepG2-A16-CD81 cells and using P. berghei sporozoites (P. berghei ANKA GFP-Luc-SMcon) freshly obtained by dissecting salivary glands of infected A. stephensi mosquitoes. Cells were first seeded in 1536-well plates (Greiner Bio) containing 50 nL of test and control compounds dissolved in DMSO and incubated for 24 h. Sporozoites were then added to each well at a density of 1 × 10^3 cells per well and kept at 37°C for 48 h. Afterwards, luciferin reagent (Promega BrightGlo) was added to each well, and luciferase activity was detected using a Perkin Elmer Envision plate. As a counter screen, HepG2-A16-CD81 cells were seeded as above and exposed to drug in the absence of sporozoites. Viability was evaluated by adding Promega CellTiterGlo® followed by luminescence measurement using a Perkin Elmer Envision plate reader. IC50 values were determined using CDD vault (https://www.collaborativedrug.com/).

[3] = system: HepG2-A16-CD81 cells; type: cell-based, H. sapiens; conditions: HepG2-A16-CD81 without sporozoites, CellTiterGlo; up to 50 μM; read-out: HepG2 EC50 (liver stage counter screen)
Experimental: as §1

[4] = system: P. falciparum 3D7 transcriptome; assay: RNASeq analysis of treated culture; type: cell-based; conditions: 3D7, 1 h, EC50 concentration, vs vehicle
Experimental: P. falciparum 3D7 culture was synchronized as previously described[64] by combination of MACS column (Mitenyi Biotic, Auburn, CA)[65] and 5% sorbitol.[66] In brief, asynchronous culture with a majority ring stage population was centrifuged, pelleted, and resuspended in 5% sorbitol and incubated at room temp for 10 min. Parasites were then washed with culture media and returned to the culture incubator. For MACS column, columns were rinsed once with RPMI prior to parasite addition. After flow-through was complete, parasites on the column were eluted onto culture plates and returned to the culture incubator. […] RNA was then extracted using Direct-zol™ RNA Miniprep Plus (Zymo Research Corporation, Irvine, CA.) following manufacturers protocols. In brief, culture was lysed with 0.1% saponin and incubated for 5 min prior to centrifuging at 900 x g for 6 min at 4°C. Cells were washed once with RPMI then once with PBS before resuspension in triazole reagent. Samples were mixed vigorously for 5 min, centrifuged at 16,000 x g for 1 min, then transferred to a RNase free tube, and an equal volume of EtOH was added. After mixing, sample was loaded onto column and centrifuged at 16,000 x g for 30 sec then washed with pre-wash buffer. Columns were incubated with DNase buffer for 15 min then washed with pre-wash buffer. Two more wash steps were performed before allowing any excess EtOH to dry for 2 min. Finally, columns were transferred to a new RNase free tube in which RNA was eluted with RNase free water.
Preliminary integrity and concentration determination was performed via nanodrop and RNA gel electrophoresis, prior to a full integrity check via Agilent Technologies 2100 Bioanalyzer. After rRNA depletion, RNA fragmentation was performed using elevated temperatures and divalent cation buffers. Library preparation was done using the Illumina TruSeq-stranded-total-RNA-sample preparation protocol, with Agilent Technologies 2100 Bioanalyzer High Sensitivity DNA Chip for quality control, and Illumina’s NovaSeq 6000 sequencing system for paired-ended sequencing. For transcript assembly, Cutadapt[71] and LC Sciences in house perl scripts were used to remove low quality or undetermined bases and reads, along with adaptor contamination. Sequence quality was then confirmed using FastQC.[72] Reads were mapped to the P. falciparum genome using Bowtie2[73] and HISAT2,[74] then assembled using StringTie.[75] To assist in the filtering process, the transcriptomes from HZ NPDG-I and the vehicle control were assembled simultaneously to construct a merged transcriptome using perl scripts and gffcompare.[76] Finally, StringTie[75] and edgeR[77] were used to estimate transcript expression levels by calculating FPKM using the following equation: FPKM=totalexonfragments/mappedreads(millions)xexonlength(kB)
To calculate p value, a parametric F-test comparing nested linear models was performed using edgeR.[77] The q-values were also calculated using a Benjamini-Hochberg procedure. Differential expression for mRNA was calculated at the gene level (all transcript isoforms grouped as 1 gene) and the transcript level (all transcript isoforms ranked individually). […] The coding potential of the remaining transcripts was then determined using CPC[78] and CNCI,[79] and transcripts with a CPC score <0.5 and/or CNCI score <0 were removed. […] The predicted cis-targets of the novel lncRNAs were then determined for the coding genes 100,000 bp upstream and downstream with perl script. […]

For `CC[C@H](C)[C@H](NC(=O)[C@H](CC(C)C)NC(=O)[C@H](CCC(N)=O)NC(=O)[C@@](C)(CC)NC(C)=O)C(=O)NC(C)(C)C(=O)N1CCC[C@H]1C(=O)N[C@](C)(CC)C(=O)N[C@@H](CC(C)C)C(=O)NC(C)(C)C(=O)N1CCC[C@H]1C(=O)N[C@H](CO)CC(C)C` [HZ NPDG-I, harzianin NPDG I] (Ac-[dIva]QLI[Aib]P[dIva]L[Aib]P[Leu(ol)]), the EC50 [1] was 13 ± 6 nM, the EC50 [2] was 2700 nM and the EC50 [3] was > 50000 nM. For the same compound, the “RNA-seq log2fc, PF3D7_0106100” value [4] was −1.35, the “RNA-seq log2fc, PF3D7_0519200.1” value [4] was −5.06 and the “RNA-seq log2fc, PF37D_1419800.1” value [4] was −3.23. The “RNA-seq log2fc, lncRNA MSTRG.194.1” value [4] was 16.51 and the “RNA-seq log2fc, lncRNA MSTRG.363.2” value [4] was 14.54.
